Test results taken from ChEMBL document CHEMBL1134062, “Spirocyclic nonpeptide glycoprotein IIb-IIIa antagonists. Part 2: design of potent antagonists containing the 3-azaspiro[5.5]undecanes” (Bioorg Med Chem Lett, 2001).
pIC50: −log10 of the molar value.

What was measured:
[1] = molecular target: Integrin alpha-IIb/beta-3 (Homo sapiens, UniProt P05106+P08514); experiment: In vitro inhibitory activity against blockage of binding of fibrinogen to purified human GPIIbIIIa; type: protein-complex assay
Homo sapiens = species: Homo sapiens; experiment: In vitro ability to inhibit the aggregation of ADP-stimulated human platelets; type: functional

Sequence of Integrin alpha-IIb/beta-3 (P05106 27-788 limits assumed): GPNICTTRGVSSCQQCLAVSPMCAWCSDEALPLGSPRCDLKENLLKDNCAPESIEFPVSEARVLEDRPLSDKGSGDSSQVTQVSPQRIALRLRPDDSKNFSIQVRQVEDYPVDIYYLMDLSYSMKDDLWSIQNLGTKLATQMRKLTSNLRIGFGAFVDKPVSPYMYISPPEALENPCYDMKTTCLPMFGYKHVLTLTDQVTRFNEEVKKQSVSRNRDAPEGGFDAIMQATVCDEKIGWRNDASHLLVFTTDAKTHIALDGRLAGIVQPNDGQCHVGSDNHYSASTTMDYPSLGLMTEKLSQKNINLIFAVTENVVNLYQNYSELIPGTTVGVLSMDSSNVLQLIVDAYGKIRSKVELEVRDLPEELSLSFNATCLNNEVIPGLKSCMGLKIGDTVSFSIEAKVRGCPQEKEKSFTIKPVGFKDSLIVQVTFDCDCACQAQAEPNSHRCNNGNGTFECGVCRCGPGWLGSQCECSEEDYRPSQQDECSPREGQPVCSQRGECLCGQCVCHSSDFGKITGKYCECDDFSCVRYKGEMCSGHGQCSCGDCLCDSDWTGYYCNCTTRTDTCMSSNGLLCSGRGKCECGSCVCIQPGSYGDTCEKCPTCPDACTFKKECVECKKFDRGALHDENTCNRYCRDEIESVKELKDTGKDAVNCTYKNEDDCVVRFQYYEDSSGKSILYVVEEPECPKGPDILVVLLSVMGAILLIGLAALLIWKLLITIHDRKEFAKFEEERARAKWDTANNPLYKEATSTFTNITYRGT
Sequence of Integrin alpha-IIb/beta-3 (P08514 32-887 limits assumed): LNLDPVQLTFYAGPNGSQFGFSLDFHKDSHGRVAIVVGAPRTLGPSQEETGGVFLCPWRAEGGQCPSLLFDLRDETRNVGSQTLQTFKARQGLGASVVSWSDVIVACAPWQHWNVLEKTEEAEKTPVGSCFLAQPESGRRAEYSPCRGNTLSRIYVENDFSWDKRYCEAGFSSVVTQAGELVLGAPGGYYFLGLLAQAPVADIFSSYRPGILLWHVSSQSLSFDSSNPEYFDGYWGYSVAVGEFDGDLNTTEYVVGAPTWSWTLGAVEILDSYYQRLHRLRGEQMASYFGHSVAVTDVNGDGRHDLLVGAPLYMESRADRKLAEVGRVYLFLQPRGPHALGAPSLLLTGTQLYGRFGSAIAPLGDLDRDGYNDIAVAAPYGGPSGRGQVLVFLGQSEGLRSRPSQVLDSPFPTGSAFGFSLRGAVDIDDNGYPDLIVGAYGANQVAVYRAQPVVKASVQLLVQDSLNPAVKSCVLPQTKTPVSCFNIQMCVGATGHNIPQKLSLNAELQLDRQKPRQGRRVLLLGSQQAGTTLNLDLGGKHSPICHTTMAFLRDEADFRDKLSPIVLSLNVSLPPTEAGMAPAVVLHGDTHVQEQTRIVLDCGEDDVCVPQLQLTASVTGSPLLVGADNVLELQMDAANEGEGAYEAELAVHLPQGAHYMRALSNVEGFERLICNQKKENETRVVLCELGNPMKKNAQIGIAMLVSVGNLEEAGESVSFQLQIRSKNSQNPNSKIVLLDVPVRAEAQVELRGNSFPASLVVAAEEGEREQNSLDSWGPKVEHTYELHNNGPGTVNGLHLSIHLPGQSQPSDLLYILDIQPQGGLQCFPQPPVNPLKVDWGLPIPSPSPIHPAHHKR
Sequence of Integrin alpha-IIb/beta-3 (P08514 891-1039 limits assumed): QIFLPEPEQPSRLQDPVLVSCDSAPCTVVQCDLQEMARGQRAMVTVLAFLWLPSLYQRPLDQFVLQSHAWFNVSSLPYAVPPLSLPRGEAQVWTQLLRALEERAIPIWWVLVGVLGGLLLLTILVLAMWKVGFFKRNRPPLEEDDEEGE

| SMILES | pIC50 [1] | pIC50 (Homo sapiens) |
| --- | --- | --- |
| N=C(N)c1ccc(N2CCC3(CCC(C(=O)NCCCC(=O)O)CC3)CC2)cc1 | 5.30 | 4.43 |
| O=C(O)CCCC(=O)N1CCC2(CCC(C(=O)N3CCC(C4CCNCC4)CC3)CC2)CC1 | 4.00 | 4.30 |
| N=C(N)c1ccc(C(=O)N2CCC3(CCC(C(=O)NCC(=O)O)CC3)CC2)cc1 |  | 4.41 |
| N=C(N)c1ccc(C(=O)N2CCC3(CCC(C(=O)O)CC3)CC2)cc1 | 4.82 | 4.71 |
| O=C(O)CCC(=O)N1CCC2(CCC(C(=O)N3CCC(C4CCNCC4)CC3)CC2)CC1 | 4.00 | 4.30 |
| C[C@@H](CC(=O)O)NC(=O)C1CCC2(CC1)CCN(c1ccncc1)CC2 | 6.21 | 4.84 |
| O=C(O)CCN1CCC2(CCC(C(=O)N3CCN(c4ccncc4)CC3)CC2)CC1 | 5.46 | 5.10 |
| N[C@@H](CNC(=O)C1CCC2(CC1)CCN(c1ccncc1)CC2)C(=O)O | 6.08 | 4.91 |
| O=C(O)C[C@@H](NC(=O)C1CCC2(CC1)CCN(c1ccncc1)CC2)c1ccccc1 |  | 4.11 |
| O=C(O)CCCNC(=O)C1CCC2(CC1)CCN(c1ccncc1)CC2 | 6.50 | 4.92 |

Now those with a higher pIC50 (Homo sapiens), led by results:

| pIC50 [1] | pIC50 (Homo sapiens) | SMILES |
| --- | --- | --- |
| 6.44 | 6.93 | O=C(O)CN1CCC2(CCC(C(=O)N3CCN(c4ccncc4)CC3)CC2)CC1 |
| 8.70 | 5.57 | O=C(N[C@@H](CNC(=O)C1CCC2(CC1)CCN(c1ccncc1)CC2)C(=O)O)OCc1ccccc1 |
| 6.60 | 5.96 | O=C(O)COC1CCC2(CC1)CCN(c1ccncc1)CC2 |
|  | 7.40 | Cc1noc(C)c1S(=O)(=O)N[C@@H](CNC(=O)C1CCC2(CC1)CCN(c1ccncc1)CC2)C(=O)O |
|  | 5.35 | O=C(O)CCNC1CCC2(CC1)CCN(c1ccncc1)CC2 |
| 6.80 | 6.05 | O=C(O)CNC1CCC2(CC1)CCN(c1ccncc1)CC2 |
| 8.10 | 5.89 | CCCCOC(=O)N[C@@H](CNC(=O)C1CCC2(CC1)CCN(c1ccncc1)CC2)C(=O)O |
|  | 6.75 | CCCCS(=O)(=O)N[C@@H](CNC(=O)C1CCC2(CC1)CCN(c1ccncc1)CC2)C(=O)O |
| 6.60 | 6.54 | O=C(O)CN1CCC2(CCC(C(=O)N3CCC(C4CCNCC4)CC3)CC2)CC1 |
| 7.22 | 5.26 | N=C(N)c1ccc(N2CCC3(CCC(C(=O)NCCC(=O)O)CC3)CC2)cc1 |
| 6.48 | 5.40 | CC(CNC(=O)C1CCC2(CC1)CCN(c1ccncc1)CC2)CC(=O)O (stereo not drawn) |
|  | 6.75 | Cc1ccc(S(=O)(=O)N[C@@H](CNC(=O)C2CCC3(CC2)CCN(c2ccncc2)CC3)C(=O)O)cc1 |
